Reference: US9232799B2, “N-[(het)arylethyl)] pyrazole(thio)carboxamides and their heterosubstituted analogues” (BAYER INTELLECTUAL PROPERTY GMBH, priority 2010, dated 2016)
Several values for one entry are separate records, joined by “and”; a condition that tells them apart may be missing. Equal entries are not always repeated. Where two headings read alike, the source gives them in different places.

Key:
Puccinia triticina = test: In vivo preventive test on Puccinia triticina (wheat); conditions: evaluated 8 days after inoculation; for Efficacy: dose 500 ppm of active ingredient
Pyrenophora teres = test: In vivo preventive test on Pyrenophora teres (barley); conditions: 500 ppm of active ingredient, evaluated 7-9 days after inoculation
Source text: One day after this treatment, the plants are inoculated with an aqueous spore suspension of Pyrenophora teres.

Alternaria solani = test: In vivo preventive test on Alternaria solani (tomato); conditions: 500 ppm of active ingredient, evaluated 7 days after inoculation
Source text: One day after this treatment, the plants are inoculated with an aqueous spore suspension of Alternaria solani.

[1] = logP by HPLC on reversed-phase column (C 18), EEC Directive 79/831 Annex V.A8; assay type: physicochemical
Experimental: In table 1, the logP values were determined in accordance with EEC Directive 79/831 Annex V.A8 by HPLC (High Performance Liquid Chromatography) on a reversed-phase column (C 18), using the method described below: Temperature: 40° C.; […]

Fusarium graminearum = test: microbe, parasite or virus in culture; assay type: cell-based; conditions: 50 μM
aflatoxines production = test: microbe, parasite or virus in culture; assay type: cell-based, Aspergillus parasiticus; conditions: 50 μM
Sphaerotheca fuliginea = test: In vivo preventive test on Sphaerotheca fuliginea (cucumber); conditions: 500 ppm of active ingredient, evaluated 7 days after inoculation
Source text: One day after this treatment, the plants are inoculated with an aqueous spore suspension of Sphaerotheca fuliginea.

[2] = tested on: Blumeria graminis f.sp. hordei; test: In vivo preventive test on Blumeria graminis (barley); conditions: 500 ppm of active ingredient, evaluated 7 days after inoculation
Source text: (§1) To test for preventive activity, young plants are sprayed with the preparation of active compound or active compound combination at the stated rate of application.

Septoria tritici = test: In vivo preventive test on Septoria tritici (wheat); conditions: 500 ppm of active ingredient, evaluated 21 days after inoculation
Source text: as §1

Leptosphaeria nodorum = test: In vivo preventive test on Leptosphaeria nodorum (wheat); conditions: 500 ppm of active ingredient, evaluated 7-9 days after inoculation
Source text: One day after this treatment, the plants are inoculated with an aqueous spore suspension of Leptosphaeria nodorum.

Venturia inaequalis = test: In vivo preventive test on Venturia inaequalis (apple scab); conditions: 100 ppm of active ingredient, evaluated 10 days after inoculation
Botrytis cinerea = test: In vivo preventive test on Botrytis cinerea (beans)
Source text: To test for preventive activity, young plants are sprayed with the preparation of active compound. After the spray coating has dried on, 2 small pieces of agar covered with growth of Botrytis cinerea are placed on each leaf.

[3] = tested on: Fusarium nivale (var. majus); test: In vivo preventive test on Fusarium nivale (wheat); conditions: 500 ppm of active ingredient, evaluated 5 days after inoculation
Source text: as §1

[4] = Botrytis cinerea, 48 h, preventive, beans, 500 ppm of active ingredient, lesion size 2 days after inoculation, read-out: Efficacy

Row | Structure (SMILES) | Efficacy (Pyrenophora teres) | Efficacy (Alternaria solani) | Efficacy (Puccinia triticina) | logP [1] | % Inhibition of fungal growth at 50 μM (Fusarium graminearum) | % Inhibition of Aflatoxin at 50 μM (aflatoxines production) | Efficacy (Sphaerotheca fuliginea) | also measured
1 | Cn1cc(C(=O)N(C2CC2)C2CCCC2c2ccc(Cl)cc2Cl)c(C(F)F)n1 (stereo not shown) [7 from WO-2010/09466, N-cyclopropyl-N-[2-(2,4-dichlorophenyl)cyclopentyl]-3-(difluoromethyl)-1-methyl-1H-pyrazole-4-carboxamide, reference compound] | – | – | – | – | – | – | – | Efficacy (protection) (Puccinia triticina; preventive, 500 ppm of active ingredient): less than 5%
2 | CN(CCc1ccc(F)cc1)C(=O)c1c(C(F)F)nn(C)c1Cl [Example 24] | 95% | 100% | 80% | 2.66 | 88% | 100% | – | –
3 | CC(Cc1ccccc1Cl)NC(=O)c1c(C(F)F)nn(C)c1Cl (stereo not shown) [Example 33] | 100% | 100% | 80% | 3.15 | 100% | 100% | 93% | –
4 | CC(c1ccccc1Cl)C(C)N(C(=O)c1c(C(F)F)nn(C)c1F)C1CC1 (stereo not shown) [Example 41] | 100% | 100% | – | 3.87 | 100% | 100% | 74% | Efficacy [2]: 100%; Efficacy (Septoria tritici): 93%; Efficacy (Leptosphaeria nodorum): 95%
5 | CC(Cc1ccc(Cl)cc1Cl)NC(=O)c1c(C(F)F)nn(C)c1F (stereo not shown) [Example 67] | 100% | 100% | – | 3.46 | 100% | 100% | 100% | Efficacy (Venturia inaequalis): 100%; Efficacy (Botrytis cinerea; preventive, beans, 100 ppm of active ingredient, lesion size 2 days after inoculation): 89%; Efficacy (Leptosphaeria nodorum): 90%
6 | Cn1nc(C(F)F)c(C(=O)NCC(C)(C)c2ccc(Cl)cc2Cl)c1Cl [Example 88] | 100% | 100% | – | 4.03 | 86% | 100% | 94% | Efficacy [3]: 88%; Efficacy [2]: 80%; Efficacy (Septoria tritici): 90%; Efficacy (Leptosphaeria nodorum): 90%
7 | CC(Cc1cc(Cl)ccc1Cl)NC(=O)c1c(C(F)F)nn(C)c1Cl (stereo not shown) [Example 93] | 100% | 100% | 70% | 3.53 | 100% | 100% | 95% | –
8 | CN(CCc1cc(Cl)ccc1Cl)C(=O)c1c(C(F)F)nn(C)c1Cl [Example 95] | 100% | 100% | 70% | 3.33 | 100% | 100% | – | –
9 | Cn1nc(C(F)F)c(C(=O)N(CC(F)(F)c2cc(Cl)ccc2Cl)C2CC2)c1F [Example 99] | 100% | 95% | – | 3.85 | – | – | 98% | Efficacy [3]: 92%; Efficacy [2]: 89%; Efficacy (Septoria tritici): 100%; Efficacy (Leptosphaeria nodorum): 95%
10 | CC(Cc1cc(Cl)cc(Cl)c1)NC(=O)c1c(C(F)F)nn(C)c1F (stereo not shown) [Example 102] | 100% | 95% | 70% | 3.48 | 100% | 100% | – | –
11 | CC(Cc1cc(Cl)cc(Cl)c1)NC(=O)c1c(C(F)F)nn(C)c1Cl (stereo not shown) [Example 104] | 100% | 95% | 70% | 3.67 | 98% | 100% | 86% | –
12 | COC(CNC(=O)c1c(C(F)F)nn(C)c1F)c1cc(Cl)cc(Cl)c1 (stereo not shown) [Example 107] | 95% | 90% | – | 3.33 | 74% | 98% | – | Efficacy [2]: 78%; Efficacy (Septoria tritici): 86%
13 | CC(Cc1c(F)cccc1Cl)N(C(=O)c1c(C(F)F)nn(C)c1Cl)C1CC1 (stereo not shown) [Example 119] | 100% | 100% | 80% | 3.94 | 79% | 95% | – | –
14 | CC(Cc1cccc(Oc2ccccc2)c1)NC(=O)c1c(C(F)F)nn(C)c1Cl (stereo not shown) [Example 147] | 100% | 100% | 70% | 3.80 | 77% | 93% | – | –
15 | Cn1nc(C(F)F)c(C(=O)N(C[Si](C)(C)c2ccccc2)C2CCCCC2)c1F [Example 229] | 70% | 90% | 80% | 4.86 | – | – | – | –
16 | Cn1nc(C(F)F)c(C(=O)NC[Si](C)(C)c2ccccc2Cl)c1Cl [Example 232] | – | – | 95% | 3.69 | – | – | – | –
17 | Cn1nc(C(F)F)c(C(=O)NC[Si](C)(C)c2ccccc2Cl)c1F [Example 233] | 100% | 95% | 95% | 3.48 | 76% | 88% | – | Efficacy (Septoria tritici): 90%; Efficacy (Leptosphaeria nodorum): 80%
18 | Cn1nc(C(F)F)c(C(=O)NC[Si](C)(C)c2ccc(Cl)cc2Cl)c1Cl [Example 239] | – | 90% | 70% | 4.25 | – | – | – | –
19 | Cn1nc(C(F)F)c(C(=O)NC[Si](C)(C)c2ccc(Cl)cc2Cl)c1F [Example 240] | 100% and 95% | 100% | 100% | 4.06 | 84% | 100% | – | Efficacy (Leptosphaeria nodorum): 95%
20 | Cn1nc(C(F)F)c(C(=O)N(C[Si](C)(C)c2ccc3ccccc3c2)C2CC2)c1F [Example 245] | 100% | 100% | 95% | 4.36 | 100% | 100% | 100% | Efficacy (Leptosphaeria nodorum): 100%
21 | Cc1nn(C)c(F)c1C(=O)NCCc1ncc(C(F)(F)F)cc1Cl [J-1 from WO-2004/074280, N-{2-[3-chloro-5-(trifluoromethyl)pyridin-2-yl]ethyl}-5-fluoro-1,3-dimethyl-1H-pyrazole-4-carboxamide, reference compound] | – | – | – | – | – | – | 16% | pest or weed control at 500 ppm (Botrytis cinerea; [4]): 0%; Efficacy (Botrytis cinerea; preventive, beans, 500 ppm of active ingredient, lesion size 2 days after inoculation, listed as J-1): no protection; Efficacy (Sphaerotheca fuliginea; listed as J-1): less than 20%
22 | Cc1nn(C)c(F)c1C(=O)N(C[Si](C)(C)c1cc(Cl)cc(Cl)c1)C1CC1 [compound CMP2, N-cyclopropyl-N-{[(3,5-dichlorophenyl)(dimethyl)silyl]methyl}-5-fluoro-1,3-dimethyl-1H-pyrazole-4-carboxamide, reference compound] | – | – | – | – | – | – | – | pest or weed control at 500 ppm (Botrytis cinerea; Botrytis cinerea, 48 h, dose 500 ppm of active ingredient, table K10, read-out: Efficacy): 10%; pest or weed control at 500 ppm (Botrytis cinerea; [4]): < 10%
23 | Cn1cc(C(=O)NCCc2ccc(Cl)cc2Cl)c(C(F)F)n1 [compound CMP3, N-[2-(2,4-dichlorophenyl)ethyl]-3-(difluoromethyl)-1-methyl-1H-pyrazole-4-carboxamide, reference compound] | – | – | – | – | – | – | – | pest or weed control at 100 ppm (Botrytis cinerea; Botrytis cinerea, 48 h, preventive, beans, 100 ppm of active ingredient, lesion size 2 days after inoculation, read-out: Efficacy): 0%
24 | CC(Cc1ncc(C(F)(F)F)cc1Cl)N(C(=O)c1cn(C)nc1C(F)F)C1CC1 (stereo not shown) [compound CMP4, N-{1-[3-chloro-5-(trifluoromethyl)pyridin-2-yl]propan-2-yl}-N-cyclopropyl-3-(difluoromethyl)-1-methyl-1H-pyrazole-4-carboxamide, reference compound] | – | – | 11% | – | – | – | – | pest or weed control at 500 ppm (Botrytis cinerea; [4]): 0%
25 | Cc1nn(C)c(F)c1C(=O)N(C(C)Cc1ncc(C(F)(F)F)cc1Cl)C1CC1 (stereo not shown) [compound CMP5, N-{1-[3-chloro-5-(trifluoromethyl)pyridin-2-yl]propan-2-yl}-N-cyclopropyl-5-fluoro-1,3-dimethyl-1H-pyrazole-4-carboxamide, reference compound] | – | – | 11% | – | – | – | – | pest or weed control at 500 ppm (Botrytis cinerea; [4]): 0%
26 | Cc1nn(C)c(F)c1C(=O)NC(C)Cc1ncc(C(F)(F)F)cc1Cl (stereo not shown) [compound CMP6, N-{1-[3-chloro-5-(trifluoromethyl)pyridin-2-yl]propan-2-yl}-5-fluoro-1,3-dimethyl-1H-pyrazole-4-carboxamide, reference compound] | – | – | – | – | – | – | – | pest or weed control at 500 ppm (Botrytis cinerea; [4]): 0%
